Laboratory results from patent US20110112135A1, “Imidazo [1,2-A] Pyridine Compounds” (priority 2007, published 2011).

What was measured:
human LXRβ = target: T1, human LXRβ (Homo sapiens, UniProt P55055); test: Ligand-binding test procedure for human LXRβ (3H T0901317 tracer, flash plates); settings: biotinylated hLXRβ from E. coli extract; tracer 3H T0901317
T1 construct: biotin (biotinylated); made in house; host or cells: E. coli (crude extract)
T1 sequence (P55055 1-460): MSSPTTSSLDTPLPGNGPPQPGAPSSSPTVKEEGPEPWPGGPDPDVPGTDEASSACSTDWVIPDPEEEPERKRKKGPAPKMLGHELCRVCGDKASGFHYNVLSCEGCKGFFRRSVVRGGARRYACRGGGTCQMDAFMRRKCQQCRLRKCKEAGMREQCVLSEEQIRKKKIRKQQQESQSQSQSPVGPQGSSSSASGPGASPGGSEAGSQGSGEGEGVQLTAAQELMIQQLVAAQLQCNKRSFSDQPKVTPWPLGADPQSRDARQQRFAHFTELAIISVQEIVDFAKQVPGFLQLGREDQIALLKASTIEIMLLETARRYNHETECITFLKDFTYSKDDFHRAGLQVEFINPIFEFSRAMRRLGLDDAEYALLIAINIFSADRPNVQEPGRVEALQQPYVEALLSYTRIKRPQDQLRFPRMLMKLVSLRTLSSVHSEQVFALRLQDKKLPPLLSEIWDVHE
Experimental: I. Ligand-Binding Test Procedure for Human LXRβ.
Receptor source: E. coli extract from cells expressing biotinylated hLXRβ. Extract was made in a similar buffer as above, but with 50 mM TRIS.
(§1) Washed streptavidin and coated flash plates with wash buffer. Diluted receptor extract to give Bmax ˜4000 cpm and add to the wells. Wrapped the plates in aluminum foil and stored them at +4° C. over night.
(§2) Made a dilution series in DMSO of the test ligands. Made a 5 nM solution of the radioactive tracer in buffer. Mixed 250 μl diluted tracer with 5 μl of the test ligand from each concentration of the dilution series. Washed the receptor-coated flash plates. Added 200 μl per well of the ligand/radiolabel mixture to the receptor-coated flash plates. Wrapped the plates in aluminum foil and incubate at +4° C. over night.
(§3) Aspirated wells, and wash the flashed plates. Sealed the plate. Measured the remaining radioactivity in the plate.

human LXRα = target: T2, human LXRα (Homo sapiens, UniProt Q13133); test: Ligand-binding test procedure for human LXRα (3H T0901317 tracer, flash plates); settings: biotinylated hLXRα from E. coli extract; tracer 3H T0901317
T2 construct: biotin (biotinylated); made in house; host or cells: E. coli (crude extract)
T2 sequence (Q13133 1-447): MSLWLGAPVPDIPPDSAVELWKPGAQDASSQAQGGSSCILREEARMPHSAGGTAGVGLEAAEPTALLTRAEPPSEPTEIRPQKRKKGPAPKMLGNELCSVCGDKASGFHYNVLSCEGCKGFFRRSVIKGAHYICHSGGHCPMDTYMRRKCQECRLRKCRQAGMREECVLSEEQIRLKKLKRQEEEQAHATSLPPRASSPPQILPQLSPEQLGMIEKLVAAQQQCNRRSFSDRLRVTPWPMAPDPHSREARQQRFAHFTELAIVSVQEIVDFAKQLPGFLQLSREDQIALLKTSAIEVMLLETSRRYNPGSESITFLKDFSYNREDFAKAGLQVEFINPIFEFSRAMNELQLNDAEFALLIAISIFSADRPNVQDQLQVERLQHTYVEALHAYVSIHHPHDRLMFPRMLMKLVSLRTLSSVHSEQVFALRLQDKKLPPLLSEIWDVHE
Experimental: II. Ligand-Binding Test Procedure for Human LXRα.
Receptor source: E. coli extract from cells expressing biotinylated hLXRα. Extract was made in a similar buffer as above, but with 50 mM TRIS.
as §1, §2, §3

IC50 (human LXRβ) [nM] | IC50 (human LXRα) [nM] | Structure (SMILES)
16.3 | 526 | CC(C)S(=O)(=O)c1cccc(Oc2cccc(-c3c(C(C)(C)C)nc4c(C#N)cccn34)c2)c1 [Example 80, 2-tert-butyl-3-{3-[3-(isopropylsulfonyl)phenoxy]phenyl}imidazo[1,2-a]pyridine-8-carbonitrile]
152 | 2390 | CC(C)(C)c1nc2c(C#N)cccn2c1-c1cccc(Oc2cccc(S(=O)(=O)CCCO)c2)c1 [Example 81, 2-tert-butyl-3-(3-{3-[(3-hydroxypropyl)sulfonyl]phenoxy}phenyl)imidazo[1,2-a]pyridine-8-carbonitrile]
83 | 2750 | CS(=O)(=O)c1cccc(Oc2cccc(-c3c(Cl)nc4c(C(F)(F)F)cccn34)c2)c1 [Example 85, 2-chloro-3-{3-[3-(methylsulfonyl)phenoxy]phenyl}-8-(trifluoromethyl)imidazo[1,2-a]pyridine]
> 1000 | > 1000 | CCc1nc2c(C(F)(F)F)cccn2c1-c1cccc(Oc2cccc(S(C)(=O)=O)c2)n1 [Example 88, 2-ethyl-3-{6-[3-(methylsulfonyl)phenoxy]pyridin-2-yl}-8-(trifluoromethyl)imidazo[1,2-a]pyridine]
> 1000 | > 1000 | CC(C)c1nc2c(C(F)(F)F)cccn2c1-c1cccc(Oc2cccc(S(C)(=O)=O)c2)n1 [Example 89, 2-isopropyl-3-{6-[3-(methylsulfonyl)phenoxy]pyridin-2-yl}-8-(trifluoromethyl)imidazo[1,2-a]pyridine]
1590 | > 1000 | CCc1nc2c(C(F)(F)F)cccn2c1-c1ccc(-c2ccc(S(=O)(=O)C(C)C)cc2)cc1 [Example 92, 2-ethyl-3-(4′-(isopropylsulfonyl)biphenyl-4-yl)-8-(trifluoromethyl)imidazo[1,2-a]pyridine]
4080 | > 1000 | CCc1nc2c(C(F)(F)F)cccn2c1-c1ccc(-c2ccc(S(C)(=O)=O)cc2)cc1 [Example 93, 2-ethyl-3-(4′-(methylsulfonyl)biphenyl-4-yl)-8-(trifluoromethyl)imidazo[1,2-a]pyridine]
> 1000 | > 1000 | CC(C)c1nc2c(C(F)(F)F)cccn2c1-c1ccc(-c2ccc(S(C)(=O)=O)cc2)cc1 [Example 94, 2-isopropyl-3-(4′-(methylsulfonyl)biphenyl-4-yl)-8-(trifluoromethyl)imidazo[1,2-a]pyridine]
135 | 2640 | CCc1nc2c(C(F)(F)F)cccn2c1-c1ccc(-c2cccc(S(C)(=O)=O)c2)cc1 [Example 95, 2-ethyl-3-(3′-(methylsulfonyl)biphenyl-4-yl)-8-(trifluoromethyl)imidazo[1,2-a]pyridine]
> 1000 | > 1000 | CC(C)c1nc2c(Cl)cccn2c1-c1cccc(Oc2ccc(S(N)(=O)=O)cc2)c1 [Example 99, 4-[3-(8-chloro-2-isopropylimidazo[1,2-a]pyridin-3-yl)phenoxy]benzenesulfonamide]
> 1000 | > 1000 | CCc1nc2c(C(F)(F)F)cccn2c1-c1ccc(Cc2cccc(S(C)(=O)=O)c2)cc1 [Example 101, 2-ethyl-3-{4-[3-(methylsulfonyl)benzyl]phenyl}-8-(trifluoromethyl)imidazo[1,2-a]pyridine]
336 | > 1000 | CCc1nc2c(C(F)(F)F)cccn2c1-c1ccc(Oc2cccc(S(C)(=O)=O)c2)cc1 [Example 102, 2-ethyl-3-{4-[3-(methylsulfonyl)phenoxy]phenyl}-8-(trifluoromethyl)imidazo[1,2-a]pyridine]
417 | > 1000 | CCc1nc2c(Cl)cccn2c1-c1ccc(Oc2cccc(S(C)(=O)=O)c2)cc1 [Example 103, 8-chloro-2-ethyl-3-{4-[3-(methylsulfonyl)phenoxy]phenyl}imidazo[1,2-a]pyridine]
230 | > 1000 | CCc1nc2c(C(F)(F)F)cccn2c1-c1ccc(Oc2cccc(S(=O)(=O)CC)c2)cc1 [Example 105, 2-ethyl-3-{4-[3-(ethylsulfonyl)phenoxy]phenyl}-8-(trifluoromethyl)imidazo[1,2-a]pyridine]
430 | > 1000 | CCc1nc2c(Cl)cccn2c1-c1ccc(Oc2cccc(S(=O)(=O)CC)c2)cc1 [Example 106, 8-chloro-2-ethyl-3-{4-[3-(ethylsulfonyl)phenoxy]phenyl}imidazo[1,2-a]pyridine]
268 | > 1000 | CCc1nc2c(Cl)cccn2c1-c1cccc(COc2cccc(S(C)(=O)=O)c2)c1 [Example 109, 8-chloro-2-ethyl-3-(3-{[3-(methylsulfonyl)phenoxy]methyl}phenyl)imidazo[1,2-a]pyridine]
> 1000 | > 1000 | CCc1nc2c(C(F)(F)F)cccn2c1-c1ccc(COc2cccc(S(C)(=O)=O)c2)cc1 [Example 111, 2-ethyl-3-(4-{[3-(methylsulfonyl)phenoxy]methyl}phenyl)-8-(trifluoromethyl)imidazo[1,2-a]pyridine]
> 1000 | > 1000 | CC(C)c1nc2c(C#N)cccn2c1-c1cccc(Oc2cccc(CS(C)(=O)=O)c2)c1 [Example 115, 2-isopropyl-3-(3-{3-[(methylsulfonyl)methyl]phenoxy}phenyl)imidazo[1,2-a]pyridine-8-carbonitrile]
970 | > 1000 | CC(C)(C)c1nc2c(C#N)cccn2c1-c1cccc(Oc2cccc(CS(C)(=O)=O)c2)c1 [Example 116, 2-tert-butyl-3-(3-{3-[(methylsulfonyl)methyl]phenoxy}phenyl)imidazo[1,2-a]pyridine-8-carbonitrile]
460 | > 1000 | CC(C)c1nc2c(Cl)cccn2c1-c1cccc(Oc2cccc(CS(C)(=O)=O)c2)c1 [Example 117, 8-chloro-2-isopropyl-3-(3-{3-[(methylsulfonyl)methyl]phenoxy}phenyl)imidazo[1,2-a]pyridine]
> 1000 | > 1000 | CCc1nc2c(C#N)cccn2c1-c1cccc(Oc2cccc(CS(C)(=O)=O)c2)c1 [Example 118, 2-ethyl-3-(3-{3-[(methylsulfonyl)methyl]phenoxy}phenyl)imidazo[1,2-a]pyridine-8-carbonitrile]
460 | > 1000 | CC(C)c1nc2c(Cl)cccn2c1-c1ccc(Oc2cccc(S(C)(=O)=O)c2)cc1 [Example 121, 8-chloro-2-(1-methylethyl)-3-{4-[3-(methylsulfonyl)phenoxy]phenyl}imidazo[1,2-a]pyridine]
345 | > 1000 | CCS(=O)(=O)c1cccc(Oc2ccc(-c3c(C(C)C)nc4c(Cl)cccn34)cc2)c1 [Example 122, 8-chloro-3-{4-[3-(ethylsulfonyl)phenoxy]phenyl}-2-(1-methylethyl)imidazo[1,2-a]pyridine]
230 | > 1000 | Cc1nccn1Cc1nc2c(C(F)(F)F)cccn2c1-c1cccc(Oc2cccc(S(C)(=O)=O)c2)c1 [Example 130, 2-[(2-methyl-1H-imidazol-1-yl)methyl]-3-{3-[3-(methylsulfonyl)phenoxy]phenyl}-8-(trifluoromethyl)imidazo[1,2-a]pyridine]
> 1000 | > 1000 | CN(C)Cc1nc2c(C(F)(F)F)cccn2c1-c1cccc(Oc2cccc(S(C)(=O)=O)c2)c1 [Example 137, N,N-dimethyl-1-[3-{3-[3-(methylsulfonyl)phenoxy]phenyl}-8-(trifluoromethyl)imidazo[1,2-a]pyridin-2-yl]methanamine]
69 | 910 | CCc1nc2c(C(F)(F)F)cccn2c1-c1cccc(Oc2cccc(S(=O)(=O)CCCC#N)c2)c1 [Example 140, 4-[(3-{3-[2-ethyl-8-(trifluoromethyl)imidazo[1,2-a]pyridin-3-yl]phenoxy}phenyl)sulfonyl]butanenitrile]
